Measurements: patent publication US20090118274A1, “MONOCYCLIC AMINOPROPYL TETRAHYDRO-PYRAZOLO-PYRIDINE MODULATORS OF CATHEPSIN S” (priority 2007, published 2009)

Each compound was assayed against T1, Recombinant human cathepsin S (CatS) (Homo sapiens, UniProt P25774) (assay: Recombinant human cathepsin S (CatS) fluorogenic substrate inhibition assay). Conditions: not given.
T1 construct: made in house
Format: biochemical
Experimental: Recombinant human cathepsin S (CatS) was expressed in the baculovirus system and purified in one step with a thiopropyl-sepharose column. […] The assay is run in 150 mM sodium acetate pH 5.0 containing 1.5 mM DTT and 150 mM NaCl. […] Measurements are taken every min for 20 min. The rate is calculated from the slope of the increase in fluorescence and the percent inhibition is calculated from this.

T1 sequence (P25774 115-331): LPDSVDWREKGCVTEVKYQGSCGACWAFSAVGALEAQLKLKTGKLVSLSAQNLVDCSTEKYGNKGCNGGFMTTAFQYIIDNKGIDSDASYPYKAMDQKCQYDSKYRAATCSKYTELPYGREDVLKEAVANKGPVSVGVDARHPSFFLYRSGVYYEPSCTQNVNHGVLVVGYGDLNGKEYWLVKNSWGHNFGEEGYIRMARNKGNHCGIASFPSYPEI

IC50 [nM]	SMILES
770	CS(=O)(=O)N1CCc2c(c(-c3ccc(C(F)(F)F)c(CNC(=O)c4cccc(C(=O)O)c4)c3)nn2CC(O)CN2CCCC2)C1 (stereo not drawn) [Example 191, N-{5-[1-(2-Hydroxy-3-pyrrolidin-1-yl-propyl)-5-methanesulfonyl-4,5,6,7-tetrahydro-1H-pyrazolo[4,3-c]pyridin-3-yl]-2-trifluoromethyl-benzyl]-isophthalamic acid]

Same assay, conditions: average of results obtained; substrate Z-Valine-Valine-Arginine-AMC 10 μM, pH 5.0; read-out: CatS IC50

IC50 [nM]	SMILES
180	CC1(C)CCN(CCCn2nc(-c3ccc(C(F)(F)F)c(CNCc4ccc(F)cc4)c3)c3c2CCN(C(=O)CO)C3)CC1 [Example 297, 1-(1-[3-(4,4-Dimethyl-piperidin-1-yl)-propyl]-3-{3-[(4-fluoro-benzylamino)-methyl]-4-trifluoromethyl-phenyl}-1,4,6,7-tetrahydro-pyrazolo[4,3-c]pyridin-5-yl)-2-hydroxy-ethanone]
50	CC(=O)NC1CCN(CC(O)Cn2nc(-c3ccc(C(F)(F)F)c(CNC(=O)c4ccc(F)cc4)c3)c3c2CCN(S(C)(=O)=O)C3)CC1 (stereo not drawn) [Example 140, N-(5-{1-[3-(4-Acetylamino-piperidin-1-yl)-2-hydroxy-propyl]-5-methanesulfonyl-4,5,6,7-tetrahydro-1H-pyrazolo[4,3-c]pyridin-3-yl}-2-trifluoromethyl-benzyl)-4-fluoro-benzamide]
370	CS(=O)(=O)N1CCc2c(c(-c3ccc(C(F)(F)F)c(CNC(=O)c4ccc5ccccc5c4)c3)nn2CC(O)CN2CCCC2)C1 (stereo not drawn) [Example 64, Naphthalene-2-carboxylic acid 5-[1-(2-hydroxy-3-pyrrolidin-1-yl-propyl)-5-methanesulfonyl-4,5,6,7-tetrahydro-1H-pyrazolo[4,3-c]pyridin-3-yl]-2-trifluoromethyl-benzylamide]
70	CC(=O)N1CCc2c(c(-c3ccc(C(F)(F)F)c(CNC(=O)c4ccc(F)cc4)c3)nn2CC(O)CN2CCC3(CCNC3=O)CC2)C1 (stereo not drawn) [Example 7, N-(5-{5-Acetyl-1-[2-hydroxy-3-(1-oxo-2,8-diaza-spiro[4.5]dec-8-yl)-propyl]-4,5,6,7-tetrahydro-1H-pyrazolo[4,3-c]pyridin-3-yl}-2-trifluoromethylbenzyl)-4-fluoro-benzamide]
140	COC1CCN(CC(O)Cn2nc(-c3ccc(Cl)c(CNC(=O)c4ccc(F)cc4)c3)c3c2CCN(S(C)(=O)=O)C3)CC1 (stereo not drawn) [Example 75, N-(2-Chloro-5-{1-[2-hydroxy-3-(4-methoxy-piperidin-1-yl)-propyl]-5-methanesulfonyl-4,5,6,7-tetrahydro-1H-pyrazolo[4,3-c]pyridin-3-yl}-benzyl)-4-fluoro-benzamide]
5600	CS(=O)(=O)N1CCc2c(c(-c3ccc(C(F)(F)F)c(C(=O)NCc4ccccc4)c3)nn2CC(O)CN2CCCC2)C1 (stereo not drawn) [Example 193, N-Benzyl-5-[1-(2-hydroxy-3-pyrrolidin-1-yl-propyl)-5-methanesulfonyl-4,5,6,7-tetrahydro-1H-pyrazolo[4,3-c]pyridin-3-yl]-2-trifluoromethyl-benzamide]
50	CS(=O)(=O)N1CCc2c(c(-c3ccc(C(F)(F)F)c(CNC(=O)c4ccc(O)cc4)c3)nn2CC(O)CN2CCC3(CCNC3=O)CC2)C1 (stereo not drawn) [Example 141, 4-Hydroxy-N-(5-{1-[2-hydroxy-3-(1-oxo-2,8-diaza-spiro[4.5]dec-8-yl)-propyl]-5-methanesulfonyl-4,5,6,7-tetrahydro-1H-pyrazolo[4,3-c]pyridin-3-yl}-2-trifluoromethyl-benzyl)-benzamide]
70	CS(=O)(=O)N1CCc2c(c(-c3ccc(Cl)c(CNC(=O)c4ccc(F)cc4)c3)nn2CC(O)CN2CCC(C(N)=O)CC2)C1 (stereo not drawn) [Example 12, 1-[3-(3-{4-Chloro-3-[(4-fluoro-benzoylamino)-methyl]-phenyl}-5-methanesulfonyl-4,5,6,7-tetrahydro-pyrazolo[4,3-c]pyridin-1-yl)-2-hydroxy-propyl]-piperidine-4-carboxylic acid amide]
440	CS(=O)(=O)N1CCc2c(c(-c3ccc(C(F)(F)F)c(CNC(=O)CN4CCOCC4)c3)nn2CCCN2CCC(N3CCCC3=O)CC2)C1 [Example 39, N-[5-(5-Methanesulfonyl-1-{3-[4-(2-oxo-pyrrolidin-1-yl)-piperidin-1-yl]-propyl}-4,5,6,7-tetrahydro-1H-pyrazolo[4,3-c]pyridin-3-yl)-2-trifluoromethyl-benzyl]-2-morpholin-4-yl-acetamide]
300	CS(=O)(=O)N1CCc2c(c(-c3ccc(Cl)c(CNC(=O)c4ccc(F)cc4)c3)nn2CC(O)CN2CCCC(O)C2)C1 (stereo not drawn) [Example 74, N-(2-Chloro-5-{1-[2-hydroxy-3-(3-hydroxy-piperidin-1-yl)-propyl]-5-methanesulfonyl-4,5,6,7-tetrahydro-1H-pyrazolo[4,3-c]pyridin-3-yl}-benzyl)-4-fluoro-benzamide]
580	CS(=O)(=O)N1CCc2c(c(-c3ccc(C(F)(F)F)c(CNC(=O)c4cccc(F)c4)c3)nn2CC(O)CN2CCCC2)C1 (stereo not drawn) [Example 215, 3-Fluoro-N-{5-[1-(2-hydroxy-3-pyrrolidin-1-yl-propyl)-5-methanesulfonyl-4,5,6,7-tetrahydro-1H-pyrazolo[4,3-c]pyridin-3-yl]-2-trifluoromethyl-benzyl}-benzamide]
190	CS(=O)(=O)N1CCc2c(c(-c3ccc(Cl)c(CNC(=O)c4ccc(F)cc4)c3)nn2CC(O)CN2CCC(F)CC2)C1 (stereo not drawn) [Example 82, N-(2-Chloro-5-{1-[3-(4-fluoro-piperidin-1-yl)-2-hydroxy-propyl]-5-methanesulfonyl-4,5,6,7-tetrahydro-1H-pyrazolo[4,3-c]pyridin-3-yl}-benzyl)-4-fluoro-benzamide]
280	CS(=O)(=O)N1CCc2c(c(-c3ccc(Cl)c(CNC(=O)c4ccc(F)cc4)c3)nn2CCCN2CCCC2)C1 [Example 35, N-{2-Chloro-5-[5-methanesulfonyl-1-(3-pyrrolidin-1-yl-propyl)-4,5,6,7-tetrahydro-1H-pyrazolo[4,3-c]pyridin-3-yl]-benzyl}-4-fluoro-benzamide]
5400	CS(=O)(=O)N1CCc2c(c(-c3ccc(Cl)c(CNS(=O)(=O)c4ccc(Cl)c(Cl)c4)c3)nn2CCCN2CCCC2)C1 [Example 197, 3,4-Dichloro-N-{2-chloro-5-[5-methanesulfonyl-1-(3-pyrrolidin-1-yl-propyl)-4,5,6,7-tetrahydro-1H-pyrazolo[4,3-c]pyridin-3-yl]-benzyl}-benzenesulfonamide]
440	CS(=O)(=O)N1CCc2c(c(-c3ccc(C(F)(F)F)c(CNC(=O)c4ccc(N)cc4)c3)nn2CC(O)CN2CCCC2)C1 (stereo not drawn) [Example 165, 4-Amino-N-{5-[1-(2-hydroxy-3-pyrrolidin-1-yl-propyl)-5-methanesulfonyl-4,5,6,7-tetrahydro-1H-pyrazolo[4,3-c]pyridin-3-yl]-2-trifluoromethyl-benzyl}-benzamide]
3100	COC1CCC(C(=O)NCc2cc(-c3nn(CC(O)CN4CCCC4)c4c3CN(S(C)(=O)=O)CC4)ccc2C(F)(F)F)CC1 (stereo not drawn) [Example 186, 4-Methoxy-cyclohexanecarboxylic acid 5-[1-(2-hydroxy-3-pyrrolidin-1-yl-propyl)-5-methanesulfonyl-4,5,6,7-tetrahydro-1H-pyrazolo[4,3-c]pyridin-3-yl]-2-trifluoromethyl-benzylamide]
2850	CS(=O)(=O)N1CCc2c(c(-c3ccc(Cl)c(CC(=O)Nc4ccccc4)c3)nn2CCCN2CCOCC2)C1 [Example 291, 2-{2-Chloro-5-[5-methanesulfonyl-1-(3-morpholin-4-yl-propyl)-4,5,6,7-tetrahydro-1H-pyrazolo[4,3-c]pyridin-3-yl]-phenyl}-N-phenyl-acetamide]
60	CS(=O)(=O)N1CCc2c(c(-c3ccc(C(F)(F)F)c(CNC(=O)c4ccc(F)cc4)c3)nn2CC(O)CN2CCC3(CCNC3=O)CC2)C1 (stereo not drawn) [Example 16, 4-Fluoro-N-(5-{1-[2-hydroxy-3-(1-oxo-2,8-diaza-spiro[4.5]dec-8-yl)-propyl]-5-methanesulfonyl-4,5,6,7-tetrahydro-1H-pyrazolo[4,3-c]pyridin-3-yl}-2-trifluoromethyl-benzyl)-benzamide]
1450	CS(=O)(=O)N1CCc2c(c(-c3ccc(Cl)c(COCc4ccc(F)cc4)c3)nn2CCCN2CCCC2)C1 [Example 4, 3-[4-Chloro-3-(4-fluoro-benzyloxymethyl)-phenyl]-5-methanesulfonyl-1-(3-pyrrolidin-1-yl-propyl)-4,5,6,7-tetrahydro-1H-pyrazolo[4,3-c]pyridine]
450	CN(C)C1CCN(CC(O)Cn2nc(-c3ccc(Cl)c(CNC(=O)c4ccc(F)cc4)c3)c3c2CCN(S(C)(=O)=O)C3)CC1 (stereo not drawn) [Example 85, N-(2-Chloro-5-{1-[3-(4-dimethylamino-piperidin-1-yl)-2-hydroxy-propyl]-5-methanesulfonyl-4,5,6,7-tetrahydro-1H-pyrazolo[4,3-c]pyridin-3-yl}-benzyl)-4-fluoro-benzamide]
1850	CS(=O)(=O)N1CCc2c(c(-c3ccc(Cl)c(CC(=O)Nc4ccc(F)cc4)c3)nn2CCCN2CCOCC2)C1 [Example 290, 2-{2-Chloro-5-[5-methanesulfonyl-1-(3-morpholin-4-yl-propyl)-4,5,6,7-tetrahydro-1H-pyrazolo[4,3-c]pyridin-3-yl]-phenyl}-N-(4-fluoro-phenyl)-acetamide]
1030	CC(=O)N1CCC(C(=O)NCc2cc(-c3nn(CC(O)CN4CCCC4)c4c3CN(S(C)(=O)=O)CC4)ccc2C(F)(F)F)CC1 (stereo not drawn) [Example 242, 1-Acetyl-piperidine-4-carboxylic acid 5-[1-(2-hydroxy-3-pyrrolidin-1-yl-propyl)-5-methanesulfonyl-4,5,6,7-tetrahydro-1H-pyrazolo[4,3-c]pyridin-3-yl]-2-trifluoromethyl-benzylamide]
10	CC(=O)NC1CCN(CC(O)Cn2nc(-c3ccc(C(F)(F)F)c(CNC(=O)C=C(C)C)c3)c3c2CCN(S(C)(=O)=O)C3)CC1 (stereo not drawn) [Example 29, 3-Methyl-but-2-enoic acid 5-{1-[3-(4-acetylamino-piperidin-1-yl)-2-hydroxy-propyl]-5-methanesulfonyl-4,5,6,7-tetrahydro-1H-pyrazolo[4,3-c]pyridin-3-yl}-2-trifluoromethyl-benzylamide]
